Assay results: publication PMC9848259 (Journal of Enzyme Inhibition and Medicinal Chemistry, 2023)

Assays:
[1] = biological target: T1, AChE (from the electric eel) (Electrophorus electricus, UniProt O42275); test: biochemical
T1 construct: purchased Sigma Aldrich
Protocol: The capacity of the novel cyclopentaquinoline hybrids to inhibit AChE (from the electric eel) and BuChE (from equine serum) were determined by the modified colorimetric Ellman’s method[38]^,[39]. Both enzymes, DTNB – Ellman’s reagent (5,5′-dithiobis-(2-nitrobenzoic acid)), acetyltiocholine iodide (ATCI) were obtained from Sigma Aldrich. AChE and BuChE samples in phosphate buffer (PBS) pH 8.0 were incubated in 96-well plates in the presence of the substrate (ATCI), 76 µl of DTNB and the tested compound at various concentration at room temperature for 10 min (AChE) or eight minutes (BuChE).

SH-SY5Y cells [2] = test: Neuroprotection against H2O2-induced oxidative stress, MTT test; format: cell-based, human; details: H2O2 100 µM
SH-SY5Y cells [3] = test: Neuroprotection against rotenone/oligomycin A, pre-incubation, MTT test; format: cell-based, human; details: Rotenone/Oligomycin A 30/10 µM
SH-SY5Y cells [4] = test: Neuroprotection against rotenone/oligomycin A, co-incubation, MTT test; format: cell-based, human; details: Rotenone/Oligomycin A 30/10 µM
[5] = In vivo acute oral toxicity (OECD 423); set-up: species or system mice; details: female, Balb/c, mouse, in vivo, OECD 423, read-out: LD50 cut-off
Protocol: (§1) Compound 3e was administered by the oral route (by gavage) in one of four fixed doses (5, 50, 300, 2000 mg/kg) for a given stage of the study. The results allow to classify the compound according to the Globally Harmonised Classification System for Chemical Substances and Mixtures (GHS). In addition, the LD50 cut-off values was determined. According to the figure from the OECD 423 guidelines, a maximum of six test stages can be performed. Three animals (female mice, Balb/c) took part in each stage, and the number of stages depends on the mortality of the animals, which is the final test parameter. The research was carried out on the basis of the agreement of the Local Ethical Committee for animal testing in Łódź No. 56/115 ŁB/2018.
(§2) After quarantine, handling, weighing and labelling, the compound 3e was given in a dose of 300 mg/kg (300 mg/kg is a dose used in the absence of information on the toxicity of the test substance. If 2–3 animals die after using this dose, compound will be given at a lower dose − 50 mg/kg. Last dose 5 mg/kg is used if after a dose of 50 mg/kg also 2–3 animals die. If no death occurs, or death of one animal, the compound is again administered to the stomach in the same dose 300 mg/kg, and […], a dose of 2000 mg/kg of body weight is used). The presence of a substance-dependent mortality of animals exposed at one stage determines the performance of the next stage of the study. After each dose, animals are observed for 14 days. […].

female mice, Balb/c = test: In vivo acute oral toxicity (OECD 423)
Protocol: as §1, §2

Aβ(1–42) aggregation = Aβ(1–42) aggregation (Homo sapiens, UniProt P05067); test: In vitro β-amyloid assay, Thioflavin T fluorescence; format: biochemical; details: ThT
Aβ(1–42) aggregation, sequence (P05067 672-713 limits assumed): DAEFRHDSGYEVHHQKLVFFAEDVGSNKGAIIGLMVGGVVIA

Aβ42 = biological target: T2, Aβ42 (Homo sapiens, UniProt P05067); test: In cellulo β-amyloid assay, Th-S fluorescence in E. coli over-expressing Aβ42; format: cell-based, Escherichia coli; details: read-out: anti-amyloid (inhibition) capacity for Aβ42
T2 construct: expressed in transfected cells; host or cells: Escherichia coli BL21 (DE3), pET vector
T2 sequence (P05067 672-713): as the sequence (P05067 672-713 limits assumed) above
Protocol: Inhibition assay in Escherichia coli cells over-expressing amyloid proteins. […] Escherichia coli competent cells BL21 (DE3) were transformed with the required pET vectors carrying the DNA sequence of Aβ42 peptide. Because of the addition of the initiation codon ATG in front of genes, the over-expressed Aβ42 contains an additional methionine residue at their N terminus. For overnight culture preparation, a colony of BL21 (DE3) bearing the plasmid to be expressed was inoculated in 10 ml of M9 minimal medium containing 50 μg/ml of kanamycin at 37 °C. […] The bacterial culture was then grown at 37 °C, with orbital agitation of 250 rpm. When the cell density reached OD600nm–0.6, 980 μL of the culture were transferred into 1.5 ml conical tubes containing 10 μL of the compound to be tested dissolved in DMSO, and 10 μL of 100 mM isopropyl 1-thio-β-D-galactopyranoside (IPTG). The final concentration of the compound was set to 10 μM. The samples were grown overnight at 37 °C under agitation at 1400 rpm, using a Thermomixer (Eppendorf, Hamburg, Germany). […]
The fluorescence normalisation was carried out considering as 100% the Th-S fluorescence of the bacterial cells expressing Aβ42 in the absence of drug, and 0% the Th-S fluorescence of the bacterial cells non-expressing Aβ42 (in absence of the protein production inductor, IPTG). […]

LogP assay (RP-HPLC) = format: physicochemical; details: pH 11 mobile phases, read-out: logP Experimental
Protocol: Methanol (POCH) was used as an organic modifier. Demineralised water was purified in our faculty. The methanol and water solution were set at pH 11 using 30 mM Triethylamine (TEA) (Sigma Aldrich). Ten isocratic mobile phases were used in the calibration and assay. The first mobile phase contained 50% methanol solution with 30 mM TEA and 50% water solution with 30 mM TEA. Each subsequent mobile phase contained 5% more methanol solution: the final mobile phase consisted of […] solution mix. The method required uncharged substances to be used during analysis.
These substances were selected on the basis of their structural similarity to the test compounds. The stock solutions contained about 1 mg/ml of calibration compounds or test compounds. The injection concentration was 100 µg/ml, and the injection volume was 7 µl.
A Waters 600 HPLC system was used with a photodiode array detector (PDA). The detector was set at the respective optimum absorption wavelength for each compound. The system used an Xbridge C18 50 mm × 4.6 mm i.d., 3.5 µm, chromatographic column (Waters). Data acquisition and processing were performed on Waters Millennium software.
The assay was performed according to Chao Liang et al. with modification. […]
Test compound was eluted by all mobile phases. […] The logP value was read from the calibration curve. […]

SHSY5Y cell = test: Toxicity towards SH-SY5Y cells (MTT); format: cell-based; details: 0.1–10 µM
Protocol: The SH-SY5Y (human neuroblastoma) (European Collection of Cell Culture) was chosen to determine the neuroprotective properties of the novel compounds. The Ham’s F12:EMEM (1:1) medium was used (Sigma Aldrich), comprising 15% Foetal Bovine Serum (Biowest), 2 mM Glutamine (Sigma Aldrich), 100 units/ml penicillin and […] (Biological Industries) and 1% Non-Essential Amino Acids (Biological Industries).
SH-SY5Y cells were seeded at a density of 5 × 10^3 cells/well in 96-well plates. The cells were cultured for 24 h (37 °C, 5% CO2). After 24 h of incubation, the medium was removed and cells were exposed to 100 µl of the compound at a range of concentrations, or of culture medium alone (blank control). After incubation, the medium was removed, washed with PBS and 50 µl of the MTT solution was added. The plates were then incubated for two hours (37 °C, 5% CO2). The MTT solution was then removed from the wells and 100 µl of DMSO was added. The plates were incubated for 10 min at room temperature and then 5 µl of Sorensen Buffer was added. The plates were swayed and the absorbance measured in a microplate reader (Synergy H1, BioTek, Winooski, VT, USA) at a wavelength of 570 nm. Cell viability was expressed as a percentage of control values (blank control). The experiments were done in triplicate.

DNA = DNA damage; details: any tested concentration

T1 sequence (O42275 24-633): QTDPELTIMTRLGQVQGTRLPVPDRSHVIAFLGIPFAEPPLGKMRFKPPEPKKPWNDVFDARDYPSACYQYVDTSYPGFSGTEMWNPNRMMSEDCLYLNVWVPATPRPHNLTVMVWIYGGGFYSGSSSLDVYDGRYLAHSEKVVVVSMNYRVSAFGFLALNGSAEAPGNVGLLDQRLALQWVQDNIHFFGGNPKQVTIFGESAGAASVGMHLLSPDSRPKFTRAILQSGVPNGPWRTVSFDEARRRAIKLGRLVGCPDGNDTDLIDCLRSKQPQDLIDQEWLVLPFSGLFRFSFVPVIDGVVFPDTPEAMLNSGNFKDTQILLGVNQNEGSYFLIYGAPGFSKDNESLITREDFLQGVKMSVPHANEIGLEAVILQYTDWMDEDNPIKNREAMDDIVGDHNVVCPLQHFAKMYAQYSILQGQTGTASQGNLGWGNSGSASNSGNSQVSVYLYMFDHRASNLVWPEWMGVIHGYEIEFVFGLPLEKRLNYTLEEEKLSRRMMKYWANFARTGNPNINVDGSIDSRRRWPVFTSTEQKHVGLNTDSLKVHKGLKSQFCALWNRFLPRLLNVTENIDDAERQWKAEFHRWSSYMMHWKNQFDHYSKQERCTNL

## O=C(NCCCCCCNc1c2c(nc3ccccc13)CCC2)c1cc(Cl)cc(Cl)c1 [Compound 3e]
[1]; IC50(BuChE)/IC50(AChE)
  Selectivity for AChE: 0.89
[1]; means ± SD of three experiments
  IC50: 131 ± 16 nM
SH-SY5Y cells [2]; compound 0.01 µM
  % neuroprotection: 40.04%
SH-SY5Y cells [2]; compound 0.1 µM
  % neuroprotection: 79.34%
SH-SY5Y cells [2]; compound 1 µM
  % neuroprotection: 71%
SH-SY5Y cells [3]; compound 0.0001 µM
  % neuroprotection: 17.64%
SH-SY5Y cells [3]; compound 0.001 µM
  % neuroprotection: 12.46%
SH-SY5Y cells [3]; compound 0.01 µM
  % neuroprotection: 7.65%
SH-SY5Y cells [3]; compound 0.1 µM
  % neuroprotection: 2.41%
SH-SY5Y cells [4]; compound 0.0001 µM
  % neuroprotection: 12.75%
SH-SY5Y cells [4]; compound 0.001 µM
  % neuroprotection: 8.67%
SH-SY5Y cells [4]; compound 0.01 µM
  % neuroprotection: 2.82%
[5]
  LD50 at 14 days: 1000 mg/kg
Female mice, Balb/c; 300 mg/kg, first and second stages, 3 female Balb/c mice per stage
  mortality: did not cause any death
Female mice, Balb/c; 2000 mg/kg, stage one, 3 mice
  mortality: no animal died
Female mice, Balb/c; 2000 mg/kg, stage two, 3 mice
  mortality: two died
Female mice, Balb/c; OECD 423
  GHS classification: Category 4 GHS
Aβ(1–42) aggregation; 5 µM compound
  inhibition at 5 µM: 55.7 ± 4.7%
Aβ(1–42) aggregation; 10 µM compound
  inhibition at 10 µM: 62.7 ± 5.3%
Aβ(1–42) aggregation; 25 µM compound
  inhibition at 25 µM: 76.5 ± 3.7%
Aβ(1–42) aggregation; 50 µM compound
  inhibition at 50 µM: 79.8 ± 2.9%
Aβ(1–42) aggregation; 100 µM compound
  inhibition at 100 µM: 82.6 ± 1.7%
Aβ42
  inhibition at 10 µM: 52.4%
LogP assay (RP-HPLC)
  chromatographic logP: 5.44
SHSY5Y cell
  toxicity towards SHSY5Y cell: non-toxic
DNA
  DNA damage: did not induce DNA damage
